Data reported in patent publication US9068987B2, “Inhibitors of extracellular HSP90” (TRUSTEES OF TUFTS COLLEGE, priority 2003, dated 2015).

Tests used:
HT-1080 cells [1] = assay: Invasion assay after 1 hour pre-treatment with novobiocin or nalidixic acid; type: cell-based, human; settings: cells pre-treated for 1 hour; normalized to no drug control; result in words
Experimental: HT-1080 cells were pre-treated for 1 hour with novobiocin or nalidixic acid and an invasion assay was performed. […] Viability of cells in this assay was not affected (data not shown). Each data point is normalized to the no drug control and represents the mean.+−.s.e.m. of 2 experiments in triplicate.
(§1) The ChemoTx® system (Neuro Probe Inc. #106-8, Gaithersburg) was used as a disposable chemotaxis/cell migration chamber in a 96 well format with an 8 μm filter Track etched Polycarbonate pore size, 5.7 mm diameter/site.
(§2) 13.3 μl of 0.3 mg/ml Matrigel (see Example 8) diluted in cold Dulbeccos PBS (Gibco #14040-091) was applied on the membrane filter of the 96-well plate on row B-H and on row A0.3 μg/site of mouse collagen, type IV (Becton-Dickenson #354233) was diluted in 0.05 M HCL (Sigma #945-50) and was incubated over night at 20° C. in a desiccator for gelation, HT-1080 cells were grown to 70-80% confluence in DMEM supplemented with MEM non-essential amino acids (IX, Gibco #11140050) and Penicillin/Streptomycin (1×, Gibco #15140122) with 10% FBS (Hyclone #SH30070.03). […] After scraping the non-migrating cells from the top of the membrane (except the Standard curve on row A) fluorescence of cells, which had migrated through the membrane (not migrated in case of the Standard curve), was measured on the Tecan Spectrafluor Plus fluorescence plate reader (excitation: 544, emission: 590 nm). […]

[2] = system: matrix metalloprotease (MMP); assay: Gelatin zymography of conditioned media (MMP secretion/activity); type: cell-based, human; settings: 40,000 HT-1080 cells treated 6 hours
Experimental: 40,000 HT-1080 cells were treated for 6 hours with novobiocin or nalidixic acid (as a control) at the given concentrations. […] Two bands (A and B) correspond to unidentified MMPs. (Image inverted for clarity.)
40,000 HT-1080 cells were treated for 6 hours with novobiocin or nalidixic acid at the given concentrations. The conditioned media from treated cells was separated using a SDS-PAGE gel containing 10 mg/mL gelantin. SDS was removed from the gel using 2.5% Triton-X-100 for 30 minutes at room temperature. Proteins were allowed to digest the gelatine in digestion buffer (0.1M […], pH 8.0, 5 mM CaCl2, 0.04% NaN3) for 48 hours at 37° C. Gels were coomassie-stained and dried for densitometry. Parallel gels were silver stained to show equal loading of protein (data not shown).

HT-1080 cells [3] = assay: Viability of cells in the novobiocin invasion assay; type: cell-based, human; settings: data not shown
Experimental: 8×10^6 HT-1080 cells/mL were pretreated for 1 hour with novobiocin or nalidixic acid at the concentrations shown and an invasion assay was performed as described in Example 9.1. […] Viability of novobiocin-treated cells in this assay was not affected (data not shown). Each data point is normalized to the no drug control and represents the mean.+−.s.e.m. of 2 experiments in triplicate.

HT-1080 cells [4] = assay: Invasion assay with FITC-labelled antibodies and CALI (Example 9.1); type: cell-based, human; settings: FITC-labelled antibody, 300 W blue-filtered light for one hour; result in words
Experimental: Each bar is normalized to dark control and represents the mean.+−.s.e.m of at least 2 experiments in triplicate.
as §1, §2

MMP2 (72 kDa gelatinase) = assay: Zymography of secreted MMP2 after geldanamycin treatment; type: cell-based, human; settings: HT-1080 cells, 20 μM in serum-free media
Experimental: HT-1080 cells were treated with 20 μM geldanamycin (GA) in serum-free media and assayed by zymography. MMP2 (72 kDa gelatinase) activity was decreased by ˜35% after GA treatment. Total protein content was visualized by silver staining to ensure equal loading.
We then applied a known Hsp90 inhibitor, geldanamycin, to HT-1080 cells to test whether inhibition of Hsp90 reduced MMP2 activity. HT-1080 cells were treated with 20 μM geldanamycin (GA) in serum-free media and secreted MMP2 was assayed by zymography. MMP2 (72 kDa gelatinase) activity was decreased by ˜35%; p<0.01 after GA treatment. Total protein content in conditioned media was visualized by silver staining to ensure equal loading. (See, FIG. 18).

HT-1080 cells [5] = assay: In vitro invasion assay with geldanamycin or GA-beads (Example 8); type: cell-based, human; settings: 10 μM for 1 hour; eliminated when activated MMP2 (100 ng) was added; data not shown
HT-1080 cells [6] = assay: Cell-matrix adhesion assay (Collagen S type I); type: cell-based, human; settings: FITC labeled scFv, assay with CALI; data not shown
Experimental: 96-well plates (TPP #9296) (cell culture treated) were coated in Row B-H with collagen S type I 1 μg/well (Roche #10982929) in Dulbeccos PBS (Gibco #14040-091) and in Row A well 10-12 were coated with 2% BSA (Sigma #A-7030)/Dulbeccos PBS at 4° C. over night. The plate was washed with Dulbeccos PBS, blocked Row B-H and Row A well 10-12 with 2% BSA/Dulbeccos PBS for 1 h at 37° C. and washed again with Dulbeccos PBS. […] Fluorescence of cells, which had adhered to the Collagen S type 1 (not adhered in case of the Standard curve), was measured on the Fluostar Galaxy (bMG) microplate reader using excitation/emission wavelengths of 370/460 nm. scFv1 inhibited the adhesion of HT-1080 cells to Collagen S type 1 by 50%. […]

HT-1080 cells [7] = assay: FACS analysis for tumor cell specific binding; set-up: species or system human; settings: 10 μg/ml scFv; HT-1080 versus HS-27 control cells
Experimental: The binding activity of scFv1 to HT-1080 cells (bold line) and to HS-27 cells (thin line) as control is illustrated.
To test the ability of purified anti HT-1080 scFv to bind specifically to target cells, we performed a fluorescence-activated cell sorter (FACS) analysis using HT-1080 cells (ATCC CCL-121) and Hs-27 cells (10^6 cells/ml) as control cell line (see Figures). Cells were incubated with 10 μg/ml of pure scFv in CellWash (BD (Becton, Dickinson and Company) #349524) for 20 min at 4° C., washed, and bound scFv's were detected with a secondary FITC labeled anti E-tag mab (Amersham #27-9412-01). Samples were washed and analyzed on a Becton Dickinson FACSscan. […] The thin line represents the control cell line (HS-27) and the bold line the HT-1080 cells. scFv1 specifically stains the tumor cell lines with up to 10 fold higher signal compared to the control cell line.

CCn1cc(C(=O)O)c(=O)c2ccc(C)nc21 [nalidixic acid]
effect on invasion of HT-1080 cells (HT-1080 cells [1]): no effect on invasion | reduction of MMP enzyme activity ([2]; zymography): no reduction of enzyme activity

CO[C@@H]1[C@@H](OC(N)=O)[C@@H](O)[C@H](Oc2ccc3c(O)c(NC(=O)c4ccc(O)c(CC=C(C)C)c4)c(=O)oc3c2C)OC1(C)C [novobiocin]
effect on invasion of HT-1080 cells (HT-1080 cells [1]): dose-dependent inhibition of invasion | viability of treated cells (HT-1080 cells [3]): not affected | decrease of MMP activity ([2]; highest concentration tested, zymography densitometry): > 75%

JB1: FITC-labeled anti-beta 1 integrin monoclonal antibody (JB1, Chemicon #MAB1963), positive control
reduction of invasion after exposure to light (HT-1080 cells [4]): significant (p<0.01, unpaired t-test) reduction of invasion

COC1=C2C[C@@H](C)C[C@H](OC)[C@H](O)[C@@H](C)/C=C(\C)[C@H](OC(N)=O)[C@@H](OC)/C=C\C=C(/C)C(=O)NC(=CC1=O)C2=O [geldanamycin]
decrease of MMP2 (72 kDa gelatinase) activity (MMP2 (72 kDa gelatinase)): ~35% | decrease of invasion of HT-1080 cells (HT-1080 cells [5]): ~35%

B1: scFv1: single chain Fv antibody fragment from phage library of mice immunized with HT-1080 cells; SEQ ID NO: 1 (protein, listed as Mus sp.)
scFv: QVQLKESGAELVKPGASVKLSCTASGFNIKDYYMHWVKQRTEQGLEWIGRIDPEDGETKYAPKFQGKATITADTSSNTAYLQLSSLTSEDTAVYYCARSYDYAMDYWGQGTTVTVSTGGGGSGGGGSGGGGSALQIVLTQSPALMSASPGEKVTMTCSASSSVSYMHWYQQKSGTSPKRWIYDTSKLASGVPARFSGSGSGTSYSLTISSMEAEDAATYYCQQWSSNPLTFGAGTKLELKAAAGAPVPYPDPLEPRGAASAWSHPQFEK
inhibition of adhesion of HT-1080 cells to Collagen S type 1 (HT-1080 cells [6]): 50% | FACS signal on tumor cell line compared to control cell line (HT-1080 cells [7]): up to 10 fold
